# Results as given in patent US20050137175A1, “Use of ecdysteroids for preparing dermatological or cosmetological anti-hair loss compositions” (L'OREAL, priority 2003, published 2005).
# Tests used:
# human hair follicle = test: Human hair follicle survival in vitro model; assay type: cell-based
# Method: We had developed and patented a model for a surviving human follicle in vitro (FR 95-08465) making it possible to evaluate the effect of a substance on follicle survival and extension. We used this in vitro model for evaluating the effect of ecdysterone on hair follicle growth and survival. Various concentrations of this substance were tested: 0.01 μg/ml, 0.1 μg/ml, 1 μg/ml and 10 μg/ml.
# hair follicle = test: Maintenance of hair follicle integrity in vitro (antibody labelling of compartment markers Ki67, keratin K14, transglutaminase, keratin hHa5); assay type: cell-based, human; conditions: 14 days of culture, ecdysterone 0.01 μg/ml, compared with reference follicle at D=0
# Description: In order to characterize more fully the effect of this substance on the hair follicle, we monitored the mitotic activity of the bulb cells and also the various specific differentiation programmes of the outer sheath, of the inner sheath and of the pilar shaft, in the presence or absence of this substance.
# The integrity of the follicle compartments after 14 days of culture was thus monitored by means of antibodies that recognize markers specific for each of these compartments: the mitosis marker Ki67, specific for the matrix (S. Commo & B. A. Bernard, 1997, Br. J. Dermatol. 137: 31-38); keratin K14, specific for the outer sheath (ibid.); transglutaminase, specific for the inner sheath (ibid.); and keratin hHa5, specific for the pillar shaft, and in particular the keratogenic zone and the cuticle (L. Langbein et al., 1999, J. Biol. Chem. 274: 19874-19884).
# C3H murine model = conditions: cited from earlier work
smiles,measurement,setting,value
CC(C)(O)CC[C@@H](O)[C@](C)(O)[C@H]1CC[C@@]2(O)C3=CC(=O)[C@@H]4C[C@@H](O)[C@@H](O)C[C@]4(C)[C@H]3CC[C@]12C [ecdysterone],human hair follicle survival in vitro,human hair follicle; ecdysterone 0.01 μg/ml,significantly increases human hair follicle survival
same,human hair follicle survival in vitro,human hair follicle; ecdysterone 0.1 μg/ml,significantly increases human hair follicle survival
same,human hair follicle survival in vitro,human hair follicle; ecdysterone 10 μg/ml,significantly increases human hair follicle survival
same,"expression of follicle compartment markers (Ki67, keratin K14, transglutaminase, keratin hHa5)",hair follicle,all the markers studied conserve an expression that is comparable to that of the reference follicle at D=0
same,hair regrowth,C3H murine model,stimulate hair regrowth
